ChEMBL document CHEMBL1201861, “Genomics of Drug Sensitity in Cancer screening data, Wellcome Trust Sanger Institute”

How the values were obtained:
Assay in all cases: cells
Format in all cases: functional, cell-based
Settings in all cases: Homo sapiens
NCI-H1651 = tested on: NCI-H1651;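 further: Read-out is a cell viability assay, with IC50 expressing inhibition of NCI-H1651 cell growth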
Description: SANGER: Inhibition of human NCI-H1651 cell growth in a cell viability assay.

Huh-7 = tested on: Huh-7;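 further: HuH-7 cell growth inhibition, read out with a cell viability assay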
Description: SANGER: Inhibition of human HuH-7 cell growth in a cell viability assay.

SK-MEL-24 = tested on: SK-MEL-24;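 further: growth inhibition read out by a cell viability assay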
Description: SANGER: Inhibition of human SK-MEL-24 cell growth in a cell viability assay.

SW948 = tested on: SW948;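 further: growth inhibition of SW948 cells, read out with a cell viability assay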
Description: SANGER: Inhibition of human SW948 cell growth in a cell viability assay.

MRK-nu-1 = tested on: MRK-nu-1;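 further: cell viability assay measuring growth suppression of human MRK-nu-1 cells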
Description: SANGER: Inhibition of human MRK-nu-1 cell growth in a cell viability assay.

DBTRG-05MG = tested on: DBTRG-05MG;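 further: cell viability assay measuring growth inhibition of human DBTRG-05MG cells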
Description: SANGER: Inhibition of human DBTRG-05MG cell growth in a cell viability assay.

MHH-ES-1 = tested on: MHH-ES-1;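 further: cell growth inhibition measured by a cell viability assay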
Description: SANGER: Inhibition of human MHH-ES-1 cell growth in a cell viability assay.

NCI-H1437 = tested on: NCI-H1437;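 further: growth inhibition of human NCI-H1437 cells, read out by a cell viability assay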
Description: SANGER: Inhibition of human NCI-H1437 cell growth in a cell viability assay.

YT = tested on: YT
Description: SANGER: Inhibition of human YT cell growth in a cell viability assay.

UACC-812 = tested on: UACC-812
Description: SANGER: Inhibition of human UACC-812 cell growth in a cell viability assay.

CAL-85-1 = tested on: CAL-85-1;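 further: growth inhibition of human CAL-85-1 cells, read out with a cell viability assay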
Description: SANGER: Inhibition of human CAL-85-1 cell growth in a cell viability assay.

NCI-H889 = tested on: NCI-H889;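 further: cell growth inhibition of the cell line, read out with a viability assay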
Description: SANGER: Inhibition of human NCI-H889 cell growth in a cell viability assay.

NCI-H524 = tested on: NCI-H524;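 further: growth inhibition of human NCI-H524 cells, read out through a cell viability assay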
Description: SANGER: Inhibition of human NCI-H524 cell growth in a cell viability assay.

NCI-H2196 = tested on: NCI-H2196;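 further: cell viability assay used as the readout of growth inhibition in NCI-H2196 cells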
Description: SANGER: Inhibition of human NCI-H2196 cell growth in a cell viability assay.

HCT-116 = tested on: HCT-116
Description: SANGER: Inhibition of human HCT-116 cell growth in a cell viability assay.

ChaGo-K-1 = tested on: ChaGo-K-1;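 further: growth inhibition of ChaGo-K-1 cells, read out with a cell viability assay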
Description: SANGER: Inhibition of human ChaGo-K-1 cell growth in a cell viability assay.

DOK = tested on: DOK;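 further: cell viability assay read-out, values reflect inhibition of cell growth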
Description: SANGER: Inhibition of human DOK cell growth in a cell viability assay.

HCC 2998 = tested on: HCC 2998;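 further: growth inhibition of human HCC2998 cells, measured with a cell viability read-out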
Description: SANGER: Inhibition of human HCC2998 cell growth in a cell viability assay.

JEG-3 = tested on: JEG-3;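 further: growth inhibition of human JEG-3 cells, read out with a cell viability assay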
Description: SANGER: Inhibition of human JEG-3 cell growth in a cell viability assay.

Ca9-22 = tested on: Ca9-22;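 further: growth inhibition of Ca9-22 cells, read out with a cell viability assay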
Description: SANGER: Inhibition of human Ca9-22 cell growth in a cell viability assay.

CAL-54 = tested on: CAL-54;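 further: growth inhibition of CAL-54 cells, read out by a viability measurement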
Description: SANGER: Inhibition of human CAL-54 cell growth in a cell viability assay.

NCI-H1522 = tested on: NCI-H1522;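 further: growth inhibition of NCI-H1522 cells, read out with a cell viability assay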
Description: SANGER: Inhibition of human NCI-H1522 cell growth in a cell viability assay.

MC-IXC = tested on: MC-IXC;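 further: growth inhibition of MC-IXC cells, read out with a cell viability assay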
Description: SANGER: Inhibition of human MC-IXC cell growth in a cell viability assay.

786-0 = tested on: 786-0
Description: SANGER: Inhibition of human 786-0 cell growth in a cell viability assay.

OAW-42 = tested on: OAW-42;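 further: growth inhibition of OAW-42 cells, read out with a cell viability assay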
Description: SANGER: Inhibition of human OAW-42 cell growth in a cell viability assay.

KP-4 = tested on: KP-4;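 further: human KP-4 cells, with growth inhibition read out through a cell viability assay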
Description: SANGER: Inhibition of human KP-4 cell growth in a cell viability assay.

NCI-H1563 = tested on: NCI-H1563;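 further: growth inhibition of human NCI-H1563 cells, read out with a cell viability assay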
Description: SANGER: Inhibition of human NCI-H1563 cell growth in a cell viability assay.

HCT-15 = tested on: HCT-15;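 further: cell viability readout, IC50 reflecting suppression of HCT-15 cell growth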
Description: SANGER: Inhibition of human HCT-15 cell growth in a cell viability assay.

HCC70 = tested on: HCC70;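 further: cell viability assay measuring how strongly the compound suppresses proliferation of HCC70 cells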
Description: SANGER: Inhibition of human HCC70 cell growth in a cell viability assay.

HuO-3N1 = tested on: HuO-3N1;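 further: cell viability readout used to measure how strongly compounds suppress proliferation of human HuO-3N1 cells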
Description: SANGER: Inhibition of human HuO-3N1 cell growth in a cell viability assay.

Capan-2 = tested on: Capan-2;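 further: Capan-2 cell growth inhibition, read out with a viability assay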
Description: SANGER: Inhibition of human Capan-2 cell growth in a cell viability assay.

NCI-H1882 = tested on: NCI-H1882;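 further: growth inhibition of the cell line, determined with a viability assay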
Description: SANGER: Inhibition of human NCI-H1882 cell growth in a cell viability assay.

REH = tested on: REH;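 further: growth inhibition of REH cells determined with a cell viability read-out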
Description: SANGER: Inhibition of human REH cell growth in a cell viability assay.

NCI-H522 = tested on: NCI-H522;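 further: cell viability assay measuring growth inhibition of human NCI-H522 cells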
Description: SANGER: Inhibition of human NCI-H522 cell growth in a cell viability assay.

SW1783 = tested on: SW1783;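 further: cell growth inhibition measured with a viability assay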
Description: SANGER: Inhibition of human SW1783 cell growth in a cell viability assay.

SK-N-AS = tested on: SK-N-AS;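 further: growth inhibition of human SK-N-AS cells, measured with a cell viability assay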
Description: SANGER: Inhibition of human SK-N-AS cell growth in a cell viability assay.

RO82-W-1 = tested on: RO82-W-1;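 further: growth inhibition of human RO82-W-1 cells, measured with a cell viability assay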
Description: SANGER: Inhibition of human RO82-W-1 cell growth in a cell viability assay.

HCC2157 = tested on: HCC2157;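 further: growth inhibition of the cancer cell line, read out as cell viability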
Description: SANGER: Inhibition of human HCC2157 cell growth in a cell viability assay.

ACHN = tested on: ACHN;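 further: cell viability read-out used to gauge how strongly growth of human ACHN cells is suppressed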
Description: SANGER: Inhibition of human ACHN cell growth in a cell viability assay.

EB2 = tested on: EB2;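 further: growth inhibition of EB2 cells, read out with a cell viability assay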
Description: SANGER: Inhibition of human EB2 cell growth in a cell viability assay.

UACC-62 = tested on: UACC-62;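 further: growth inhibition of human UACC-62 cells, read out by a cell viability assay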
Description: SANGER: Inhibition of human UACC-62 cell growth in a cell viability assay.

CaR-1 = tested on: CaR-1;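 further: growth inhibition of human CaR-1 cancer cells, read out with a cell viability assay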
Description: SANGER: Inhibition of human CaR-1 cell growth in a cell viability assay.

OAW-28 = tested on: OAW-28;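 further: growth inhibition of OAW-28 cells, read out with a cell viability assay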
Description: SANGER: Inhibition of human OAW-28 cell growth in a cell viability assay.

MKN-28 = tested on: MKN-28;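 further: cell viability assay read-out, IC50 reflects suppression of growth of human MKN-28 cells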
Description: SANGER: Inhibition of human MKN28 cell growth in a cell viability assay.

NCI-H28 = tested on: NCI-H28;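 further: growth inhibition of human NCI-H28 cells, read out as cell viability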
Description: SANGER: Inhibition of human NCI-H28 cell growth in a cell viability assay.

EFO-21 = tested on: EFO-21;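 further: growth inhibition of EFO-21 cells measured with a viability assay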
Description: SANGER: Inhibition of human EFO-21 cell growth in a cell viability assay.

NCI-H2122 = tested on: NCI-H2122;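 further: growth inhibition of the cells, read out with a cell viability assay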
Description: SANGER: Inhibition of human NCI-H2122 cell growth in a cell viability assay.

NCI-H2347 = tested on: NCI-H2347;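 further: growth inhibition of the cell line, read out with a cell viability assay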
Description: SANGER: Inhibition of human NCI-H2347 cell growth in a cell viability assay.

SNU-C1 = tested on: SNU-C1;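 further: growth inhibition of SNU-C1 human cells, read out by a cell viability assay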
Description: SANGER: Inhibition of human SNU-C1 cell growth in a cell viability assay.

MDA-MB-453 = tested on: MDA-MB-453
Description: SANGER: Inhibition of human MDA-MB-453 cell growth in a cell viability assay.

NCI-H650 = tested on: NCI-H650;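 further: growth inhibition of NCI-H650 cells, read out by a viability assay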
Description: SANGER: Inhibition of human NCI-H650 cell growth in a cell viability assay.

ME-180 = tested on: ME-180;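 further: cell viability assay measuring growth inhibition of ME-180 cells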
Description: SANGER: Inhibition of human ME-180 cell growth in a cell viability assay.

SW1573 = tested on: SW1573;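 further: growth inhibition of SW1573 cells, read out with a cell viability assay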
Description: SANGER: Inhibition of human SW1573 cell growth in a cell viability assay.

TE-15 = tested on: TE-15
Description: SANGER: Inhibition of human TE-15 cell growth in a cell viability assay.

HMV-2 cell line = tested on: HMV-2 cell line
Description: SANGER: Inhibition of human HMV-II cell growth in a cell viability assay.

SBC-5 = tested on: SBC-5
Description: SANGER: Inhibition of human SBC-5 cell growth in a cell viability assay.

COLO-680N = tested on: COLO-680N
Description: SANGER: Inhibition of human COLO-680N cell growth in a cell viability assay.

LCLC-97TM1 = tested on: LCLC-97TM1
Description: SANGER: Inhibition of human LCLC-97TM1 cell growth in a cell viability assay.

D-542MG = tested on: D-542MG
Description: SANGER: Inhibition of human D-542MG cell growth in a cell viability assay.

SiHa = tested on: SiHa
Description: SANGER: Inhibition of human SiHa cell growth in a cell viability assay.

PC-3 = tested on: PC-3
Description: SANGER: Inhibition of human PC-3 cell growth in a cell viability assay.

COLO-679 = tested on: COLO-679
Description: SANGER: Inhibition of human COLO-679 cell growth in a cell viability assay.

CPC-N = tested on: CPC-N
Description: SANGER: Inhibition of human CPC-N cell growth in a cell viability assay.

NCI-H810 = tested on: NCI-H810
Description: SANGER: Inhibition of human NCI-H810 cell growth in a cell viability assay.

T47D = tested on: T47D
Description: SANGER: Inhibition of human T47D cell growth in a cell viability assay.

Compound: C/C(O)=C(\C#N)C(=O)Nc1cc(Br)ccc1Br
- IC50 (NCI-H1651): > 16 µM
- IC50 (Huh-7): > 16 µM
- IC50 (SK-MEL-24): > 16 µM
- IC50 (SW948): > 16 µM
- IC50 (MRK-nu-1): > 16 µM
- IC50 (DBTRG-05MG): > 16 µM
- IC50 (MHH-ES-1): > 16 µM
- IC50 (NCI-H1437): > 16 µM
- IC50 (YT): > 16 µM
- IC50 (UACC-812): > 16 µM
- IC50 (CAL-85-1): > 16 µM
- IC50 (NCI-H889): > 16 µM
- IC50 (NCI-H524): > 16 µM
- IC50 (NCI-H2196): > 16 µM
- IC50 (HCT-116): > 16 µM
- IC50 (ChaGo-K-1): > 16 µM
- IC50 (DOK): > 16 µM
- IC50 (HCC 2998): > 16 µM
- IC50 (JEG-3): > 16 µM
- IC50 (Ca9-22): > 16 µM
- IC50 (CAL-54): > 16 µM
- IC50 (NCI-H1522): > 16 µM
- IC50 (MC-IXC): > 16 µM
- IC50 (786-0): > 16 µM
- IC50 (OAW-42): > 16 µM
- IC50 (KP-4): > 16 µM
- IC50 (NCI-H1563): > 16 µM
- IC50 (HCT-15): > 16 µM
- IC50 (HCC70): > 16 µM
- IC50 (HuO-3N1): > 16 µM
- IC50 (Capan-2): > 16 µM
- IC50 (NCI-H1882): > 16 µM
- IC50 (REH): > 16 µM
- IC50 (NCI-H522): > 16 µM
- IC50 (SW1783): > 16 µM
- IC50 (SK-N-AS): > 16 µM
- IC50 (RO82-W-1): > 16 µM
- IC50 (HCC2157): > 16 µM
- IC50 (ACHN): > 16 µM
- IC50 (EB2): > 16 µM
- IC50 (UACC-62): > 16 µM
- IC50 (CaR-1): > 16 µM
- IC50 (OAW-28): > 16 µM
- IC50 (MKN-28): > 16 µM
- IC50 (NCI-H28): > 16 µM
- IC50 (EFO-21): > 16 µM
- IC50 (NCI-H2122): > 16 µM
- IC50 (NCI-H2347): > 16 µM
- IC50 (SNU-C1): > 16 µM
- IC50 (MDA-MB-453): > 16 µM
- IC50 (NCI-H650): > 16 µM
- IC50 (ME-180): > 16 µM
- IC50 (SW1573): > 16 µM
- IC50 (TE-15): > 16 µM
- IC50 (HMV-2 cell line): > 16 µM
- IC50 (SBC-5): > 16 µM
- IC50 (COLO-680N): > 16 µM
- IC50 (LCLC-97TM1): > 16 µM
- IC50 (D-542MG): > 16 µM
- IC50 (SiHa): > 16 µM
- IC50 (PC-3): > 16 µM
- IC50 (COLO-679): > 16 µM
- IC50 (CPC-N): > 16 µM
- IC50 (NCI-H810): > 16 µM
- IC50 (T47D): > 16 µM

Compound: CC(O)(CS(=O)(=O)c1ccc(F)cc1)C(=O)Nc1ccc(C#N)c(C(F)(F)F)c1 (stereo not given) [BICALUTAMIDE]
- IC50 (NCI-H1651): > 1.02 µM
- IC50 (Huh-7): > 1.02 µM
- IC50 (SK-MEL-24): > 1.02 µM
- IC50 (SW948): > 1.02 µM
- IC50 (MRK-nu-1): > 1.02 µM
- IC50 (DBTRG-05MG): > 1.02 µM
- IC50 (MHH-ES-1): > 1.02 µM
- IC50 (NCI-H1437): > 1.02 µM
- IC50 (YT): > 1.02 µM
- IC50 (UACC-812): > 1.02 µM
- IC50 (CAL-85-1): > 1.02 µM
- IC50 (NCI-H889): > 1.02 µM
- IC50 (NCI-H524): > 1.02 µM
- IC50 (NCI-H2196): > 1.02 µM
- IC50 (HCT-116): > 1.02 µM
- IC50 (ChaGo-K-1): > 1.02 µM
- IC50 (DOK): > 1.02 µM
- IC50 (HCC 2998): > 1.02 µM
- IC50 (JEG-3): > 1.02 µM
- IC50 (Ca9-22): > 1.02 µM
- IC50 (CAL-54): > 1.02 µM
- IC50 (NCI-H1522): > 1.02 µM
- IC50 (MC-IXC): > 1.02 µM
- IC50 (786-0): > 1.02 µM
- IC50 (OAW-42): > 1.02 µM
- IC50 (KP-4): > 1.02 µM
- IC50 (NCI-H1563): > 1.02 µM
- IC50 (HCT-15): > 1.02 µM
- IC50 (HCC70): > 1.02 µM
- IC50 (HuO-3N1): > 1.02 µM
- IC50 (Capan-2): > 1.02 µM
- IC50 (NCI-H1882): > 1.02 µM
- IC50 (REH): > 1.02 µM
- IC50 (NCI-H522): > 1.02 µM
- IC50 (SW1783): > 1.02 µM
- IC50 (SK-N-AS): > 1.02 µM
- IC50 (RO82-W-1): > 1.02 µM
- IC50 (HCC2157): > 1.02 µM
- IC50 (ACHN): > 1.02 µM
- IC50 (EB2): > 1.02 µM
- IC50 (UACC-62): > 1.02 µM
- IC50 (CaR-1): > 1.02 µM
- IC50 (OAW-28): > 1.02 µM
- IC50 (MKN-28): > 1.02 µM
- IC50 (NCI-H28): > 1.02 µM
- IC50 (EFO-21): > 1.02 µM
- IC50 (NCI-H2122): > 1.02 µM
- IC50 (NCI-H2347): > 1.02 µM
- IC50 (SNU-C1): > 1.02 µM
- IC50 (MDA-MB-453): > 1.02 µM
- IC50 (NCI-H650): > 1.02 µM
- IC50 (ME-180): > 1.02 µM
- IC50 (SW1573): > 1.02 µM
- IC50 (TE-15): > 1.02 µM
- IC50 (HMV-2 cell line): > 1.02 µM
- IC50 (SBC-5): > 1.02 µM
- IC50 (COLO-680N): > 1.02 µM
- IC50 (LCLC-97TM1): > 1.02 µM
- IC50 (D-542MG): > 1.02 µM
- IC50 (SiHa): > 1.02 µM
- IC50 (PC-3): > 1.02 µM
- IC50 (COLO-679): > 1.02 µM
- IC50 (CPC-N): > 1.02 µM
- IC50 (NCI-H810): > 1.02 µM
- IC50 (T47D): > 1.02 µM
